{"source": "patent EP0274444A2", "about": "“Solution inbuprofen complexes, compositions and processes for preparing the same” (priority 1987, dated 1988)", "experiment": "pH of the resulting solutions (pH meter with combination electrode)", "format": "physicochemical", "conditions": "Mole Ratio Cyclodextrin:Ibuprofen 0:1 (ibuprofen alone, saturated solution)", "experimental": "The pH of each solution was measured using an Orion Model 701 pH meter with a combination electrode.", "data": [{"compound": "CC(C)Cc1ccc(C(C)C(=O)O)cc1", "note": "(stereo not shown) [Ibuprofen, ibuprofen]", "values": [{"measurement": "pH", "value": 4.56}]}]}
